These results are taken from ChEMBL document CHEMBL1147218, “New bioactive diterpene polyesters from Euphorbia decipiens” (J Nat Prod, 2003).

As a reminder, the IC50 is the concentration at which inhibition is half-maximal.

For experiment [1], the system named is Saccharomyces cerevisiae. Description: DNA damaging activity against DNA repair-deficient RS 322YK (rad 52Y) yeast assessed as drug level required to produce 12 mm zone of inhibition. The format is functional.
Experiment [2] deals with Saccharomyces cerevisiae. Description: DNA damaging activity against wild type (Rad+) yeast assessed as drug level required to produce 12 mm zone of inhibition. The format is functional.
The target in experiment [3] is Prolyl endopeptidase (Elizabethkingia meningoseptica, UniProt P27028). Description: Inhibition of Flavobacterium meningosepticum […].
Sequence of Prolyl endopeptidase (P27028 21-705 limits assumed): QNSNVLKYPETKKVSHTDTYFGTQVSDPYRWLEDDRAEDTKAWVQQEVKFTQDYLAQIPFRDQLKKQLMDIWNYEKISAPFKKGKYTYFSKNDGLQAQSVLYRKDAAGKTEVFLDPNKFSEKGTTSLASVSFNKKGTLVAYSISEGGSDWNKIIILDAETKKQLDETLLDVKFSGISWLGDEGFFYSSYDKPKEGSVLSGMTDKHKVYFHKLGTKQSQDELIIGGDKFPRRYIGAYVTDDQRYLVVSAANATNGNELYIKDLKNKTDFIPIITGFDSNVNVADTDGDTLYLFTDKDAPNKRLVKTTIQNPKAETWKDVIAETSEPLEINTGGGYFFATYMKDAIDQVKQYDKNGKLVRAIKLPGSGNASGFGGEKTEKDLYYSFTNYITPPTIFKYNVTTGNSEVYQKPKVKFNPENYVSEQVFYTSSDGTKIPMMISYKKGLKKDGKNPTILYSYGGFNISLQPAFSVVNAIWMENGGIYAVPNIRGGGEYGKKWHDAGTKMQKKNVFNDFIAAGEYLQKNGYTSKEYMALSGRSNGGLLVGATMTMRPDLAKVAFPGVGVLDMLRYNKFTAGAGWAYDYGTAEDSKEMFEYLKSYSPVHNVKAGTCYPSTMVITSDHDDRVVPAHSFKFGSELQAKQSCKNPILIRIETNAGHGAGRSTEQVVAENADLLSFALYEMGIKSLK

Regarding `CC(=O)OC[C@@]12[C@H](OC(C)=O)[C@H]3[C@@H](OC(C)=O)[C@@H](C)C[C@]3(OC(C)=O)C(=O)[C@@]3(C)OC(C)(C)[C@@H](C=C[C@H]1OC(=O)c1ccccc1)[C@H]23`, the IC12 in experiment [1] worked out at 750 µg/mL; in experiment [2] it was 1090 µg/mL. In turn, `CC(=O)OC[C@@]12[C@H](OC(C)=O)[C@H]3[C@@H](OC(C)=O)[C@@H](C)C[C@]3(O)C(=O)[C@@]3(C)OC(C)(C)[C@@H](C=C[C@H]1OC(=O)c1ccccc1)[C@H]23` registered an IC50 in experiment [3] of 16.9 µM. As to `CC[C@@]1(O)C(=O)OCc2c1cc1n(c2=O)Cc2cc3ccccc3nc2-1` [CAMPTOTHECIN], the IC12 in experiment [1] amounted to 12 µg/mL; in experiment [2], 75 µg/mL.
